According to patent US20240108602A1, “TREATMENT OF MENTAL DISORDERS” (GH Research Ireland Limited, priority 2022, published 2024):
Read-outs that look alike come from different tables or passages of the source.

What was measured:
human hepatocytes [1] = experiment: Metabolite identification after incubation of 5-MeO-DMT with human hepatocytes; details: 5-MeO-DMT free base 10 μM, up to 120 minutes
Experimental: For incubations with cryopreserved hepatocytes, the 2 mM stock solution was diluted with Leibovitz L-15 medium to a concentration of 20 μM or 2 μM. An aliquot (250 μL) of the 20 μM and 2 μM test substance formulations was added to each hepatocyte incubation sample (250 μL), as appropriate, so that the final test substance concentration in the incubations was 10 μM or 1 μM, respectively, and incubations contained less than 1% (v/v) solvent.
Incubations were performed at ca. 37° C. in a shaking water bath (total incubation volume 0.5 mL). For 1 μM, incubations were terminated after 0, 5, 10, 20, 30, 60 and 120 minutes, by the addition of ice-cold acetonitrile (0.5 mL).
The samples were vortex mixed and centrifuged at ca 13,000 rpm for 10 minutes at room temperature. Following centrifugation, the protein-free supernatants were removed for analysis.
Blank control incubations were carried out with Leibovitz L-15 medium in place of the test substance. No cells control samples were performed with Leibovitz L-15 medium in place of hepatocytes. Aliquots of the blank control samples were taken at 120 minutes, while no cells control samples were taken at 0, 30 and 120 for 1 μM incubations and at 0 and 120 minutes for 10 μM incubations.
All 1 μM incubations were performed in duplicate, while all 10 μM incubations were performed in singlet. All samples were stored at −80° C. (nominal) prior to analysis.
Prior to sample analysis a 100 μL aliquot of each sample was evaporated to near dryness under a steady stream of nitrogen at room temperature, and subsequently reconstituted in 50 μL of mobile phase A (0.1% formic acid in water). Each sample (0, 30 and 120-minute, 10 μM) was analysed using accurate mass LC-MS to determine relative levels of parent compound at each time-point, and determine the profile of metabolites formed. Appropriate blank and control samples were also analysed. The 10 and 60-minute, 10 μM incubation samples were not analysed and were stored at −80° C. (nominal).
Data were interrogated for the presence of metabolites by comparison of retention times with the test substance reference standard and based on the accurate masses of potential metabolites using screening software (UNIFI version 1.9.4), and user defined search parameters. To confirm a suspected metabolite, the measured accurate mass of the peak detected in the sample used for structural elucidation had to be within 5 ppm of the theoretical mass in order to confirm the molecular formula.

[2] = Metabolic stability in Hμrel human hepatocyte co-culture model; details: human, Hμrel HumanPool primary human hepatocyte co-culture
human hepatocytes [3] = experiment: as above
[4] = 5-MeO-DMT, 5-MIAA and bufotenine in urine, serum and breastmilk of a lactating PPD patient, LC-MS/MS
Experimental: The second patients was lactating, and, per the clinical trial protocol, breastmilk samples were collected pre-dosing and at multiple timepoints after administration of the last dose. […] Similar analyses were carried out on patient serum and urine samples.

[5] = Daily Infant Dosage (DID) and Relative Infant Dose (RID) calculated from breast milk concentrations; details: 5 kg infant, three 250 ml feeds
Description: When determining the potential impact of maternal drug administration on a breastfed infant, it is standard practice to calculate the Relative Infant Dose (RID) (Bennett, P. N., and L. J. Notarianni. “Risk from drugs in breast milk: an analysis by relative dose.” Br J Clin Pharmacol 42.5 (1996): P673-4). The RID is the dosage (in μg/kg/day) the infant is exposed to by the intake of breast milk, divided by the dosage (in μg/kg/day) the mother receives.
Using estimates for daily intake of breast milk and the number of feeds as well as the measured breast milk concentrations the exposure of the infant can be determined.
For example, a published estimate for daily intake of breast milk as a function of infant weight is 150 ml/kg/day. To model the exposure, it is assumed that an infant of 5 kg is fed three times over 24 hours, receiving 250 ml breast milk each time.
Since the amount actually delivered to the patient may be lower than the indicated dose, a calculation of the RID is also carried out assuming that the actually delivered amount is only 50% of the indicated dose so that any a potential underestimation of the infant exposure is avoided.

[6] = Plasma binding of 5-MIAA (unbound fraction); format: in vitro ADME
Experimental: Binding to human plasma protein was determined. Reported are the unbound fraction (fu) for three replicates as well as the mean unbound fraction, the standard deviation and the mean % recovery (Table 8).

[7] = female, human, breast milk, inhaled

With COc1ccc2[nH]cc(CC(=O)O)c2c1 [5-MIAA, 5-methoxyindole-3-acetic acid] the “Relative Proportion of compound after incubation of 5-MeO-DMT” value (human hepatocytes [1]) was “about 60%”, the “Relative Proportion of compound after incubation of 5-MeO-DMT” value (human hepatocytes [1]; listed as 5-Methoxyindole acetic acid (5-MIAA)) was 61% and the half-life at 1 μM [2] was 10.7 days. For the same compound, the hepatocyte CLint at 1 μM [2] was 0.15 µL/min/1e6 cells, the “relative LC/MS peak area” value (human hepatocytes [3]; 1 μM Hepatocytes, 0 h) was 100% and the “relative LC/MS peak area” value (human hepatocytes [3]; 1 μM Hepatocytes, 1 h) was 98%. For the same compound, the “relative LC/MS peak area” value (human hepatocytes [3]; 1 μM Hepatocytes, 2 h) was 100%, the “relative LC/MS peak area” value (human hepatocytes [3]; 1 μM Hepatocytes, 4 h) was 99% and the “relative LC/MS peak area” value (human hepatocytes [3]; 1 μM Hepatocytes, 8 h) was 95%. The “relative LC/MS peak area” value (human hepatocytes [3]; 1 μM Hepatocytes, 24 h) was 99%, the “relative LC/MS peak area” value (human hepatocytes [3]; 1 μM Hepatocytes, 48 h) was 88% and the “relative LC/MS peak area” value (human hepatocytes [3]; 1 μM Hepatocytes, 72 h) was 82%. For the same compound, the “relative LC/MS peak area” value (human hepatocytes [3]; 1 μM Stromal cells, 0 h) was 100%, the “relative LC/MS peak area” value (human hepatocytes [3]; 1 μM Stromal cells, 4 h) was 103% and the “relative LC/MS peak area” value (human hepatocytes [3]; 1 μM Stromal cells, 8 h) was 107%. The “relative LC/MS peak area” value (human hepatocytes [3]; 1 μM Stromal cells, 24 h) was 108%, the “relative LC/MS peak area” value (human hepatocytes [3]; 1 μM Stromal cells, 48 h) was 111% and the “relative LC/MS peak area” value (human hepatocytes [3]; 1 μM Stromal cells, 72 h) was 135%. For the same compound, the “relative LC/MS peak area” value (human hepatocytes [3]; 10 μM Hepatocytes, 0 h) was 100%, the “relative LC/MS peak area” value (human hepatocytes [3]; 10 μM Hepatocytes, 1 h) was 97% and the “relative LC/MS peak area” value (human hepatocytes [3]; 10 μM Hepatocytes, 2 h) was 100%. For the same compound, the “relative LC/MS peak area” value (human hepatocytes [3]; 10 μM Hepatocytes, 4 h) was 103%, the “relative LC/MS peak area” value (human hepatocytes [3]; 10 μM Hepatocytes, 8 h) was 96% and the “relative LC/MS peak area” value (human hepatocytes [3]; 10 μM Hepatocytes, 24 h) was 96%. For the same compound, the “relative LC/MS peak area” value (human hepatocytes [3]; 10 μM Hepatocytes, 48 h) was 86%, the “relative LC/MS peak area” value (human hepatocytes [3]; 10 μM Hepatocytes, 72 h) was 75% and the “relative LC/MS peak area” value (human hepatocytes [3]; 10 μM Stromal cells, 0 h) was 100%. The “relative LC/MS peak area” value (human hepatocytes [3]; 10 μM Stromal cells, 4 h) was 101%, the “relative LC/MS peak area” value (human hepatocytes [3]; 10 μM Stromal cells, 8 h) was 106% and the “relative LC/MS peak area” value (human hepatocytes [3]; 10 μM Stromal cells, 24 h) was 97%. The “relative LC/MS peak area” value (human hepatocytes [3]; 10 μM Stromal cells, 48 h) was 103%, the “relative LC/MS peak area” value (human hepatocytes [3]; 10 μM Stromal cells, 72 h) was 115% and the metabolic turnover (human hepatocytes [3]; human hepatocytes) was “low metabolic turnover”. The “predicted hepatic extraction ratio” value (human hepatocytes [3]; human, Hμrel HumanPool primary human hepatocyte co-culture) was 2%, the “remaining abundance after 72 h” value (human hepatocytes [3]; in the presence of hepatocytes, 1 and 10 μM) was 75-82% and the “disappearance with stromal cell controls” value (human hepatocytes [3]; stromal cell controls) was “no disappearance”. The “urine concentration relative to serum (times higher)” value ([4]; 2.5 hours) was “approx. 127 times”, the Breastmilk concentration ([4]; 120.0 hrs after last dose) was “BLQ (BLQ: Below limit of quantification. The lower limit of quantification is 25 pg/ml for both 5-MeO-DMT and 5-MIAA in both serum and breastmilk; it is 25 pg/ml in urine for 5-MeO-DMT and 250 pg/ml for 5-MIAA in urine.)” and the concentration at 2.5 h [4, 7] was 13.2 ng/mL. For the same compound, the concentration at 8.5 h [4, 7] was 0.359 ng/mL, the concentration at 2.5 h ([4]; female, human, urine, inhaled) was 13000 ng/mL and the Breastmilk concentration ([4]; −24.0 hrs (pre-dosing)) was “BLQ (BLQ: Below limit of quantification. The lower limit of quantification is 25 pg/ml for both 5-MeO-DMT and 5-MIAA in both serum and breastmilk; it is 25 pg/ml in urine for 5-MeO-DMT and 250 pg/ml for 5-MIAA in urine.)”. For the same compound, the “Daily Infant Dosage (DID) of 5-MIAA” value [5] was 0.006886 mg/day, the “Daily Infant Dosage (DID) of 5-MIAA per kg” value [5] was 0.001377 mg/kg/day and the recovery ([6]; human) was 81.4%. The fraction unbound ([6]; human plasma, read-out: plasma binding (mean fraction unbound)) was ~0.5, the fraction unbound ([6]; human, read-out: Mean fu) was 0.502 and the fraction unbound ([6]; human, read-out: unbound fraction (fu), Replicate 1) was 0.499. For the same compound, the fraction unbound ([6]; human, read-out: unbound fraction (fu), Replicate 2) was 0.462 and the fraction unbound ([6]; human, read-out: unbound fraction (fu), Replicate 3) was 0.544.
